{
  "source": "PubChem BioAssay (NCI)",
  "assay_in_all_cases": "NCI anticancer screen, dose series, 384-well format",
  "key": {"T-47D breast": {"tested_on": "T-47D breast"}, "U251 glioblastoma": {"tested_on": "U251 glioblastoma"}, "M14 melanoma": {"tested_on": "M14 melanoma"}, "SR leukemia": {"tested_on": "SR leukemia"}, "DU-145 prostate": {"tested_on": "DU-145 prostate"}, "A498 renal": {"tested_on": "A498 renal"}, "SF-295 CNS": {"tested_on": "SF-295 CNS"}, "HOP-62 NSCLC": {"tested_on": "HOP-62 NSCLC"}, "BT-549 breast": {"tested_on": "BT-549 breast"}, "SK-MEL-28 melanoma": {"tested_on": "SK-MEL-28 melanoma"}, "UO-31 renal": {"tested_on": "UO-31 renal"}, "HT29 colon": {"tested_on": "HT29 colon"}, "OVCAR-8 ovarian": {"tested_on": "OVCAR-8 ovarian"}},
  "note": "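GI50 marks 50% less growth. TGI: total growth inhibition.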",
  "data": [
    {"smiles": "COCCOc1cc(F)c2c(Nc3ccc(NC(=O)Cn4cc(C(C)C)nn4)cc3)ncnc2c1", "values": [
      {"measurement": "GI50", "setting": "T-47D breast", "result": 5.9, "unit": "µM"},
      {"measurement": "TGI", "setting": "T-47D breast", "result": "> 100", "unit": "µM"},
      {"measurement": "GI50", "setting": "U251 glioblastoma", "result": 57.9, "unit": "µM"},
      {"measurement": "TGI", "setting": "U251 glioblastoma", "result": "> 100", "unit": "µM"},
      {"measurement": "GI50", "setting": "M14 melanoma", "result": 59, "unit": "µM"},
      {"measurement": "TGI", "setting": "M14 melanoma", "result": "> 100", "unit": "µM"},
      {"measurement": "GI50", "setting": "SR leukemia", "result": 10.1, "unit": "µM"},
      {"measurement": "TGI", "setting": "SR leukemia", "result": 41.5, "unit": "µM"},
      {"measurement": "GI50", "setting": "DU-145 prostate", "result": 75, "unit": "µM"},
      {"measurement": "TGI", "setting": "DU-145 prostate", "result": "> 100", "unit": "µM"},
      {"measurement": "GI50", "setting": "A498 renal", "result": 79.9, "unit": "µM"},
      {"measurement": "TGI", "setting": "A498 renal", "result": "> 100", "unit": "µM"},
      {"measurement": "GI50", "setting": "SF-295 CNS", "result": "> 100", "unit": "µM"},
      {"measurement": "TGI", "setting": "SF-295 CNS", "result": "> 100", "unit": "µM"},
      {"measurement": "GI50", "setting": "HOP-62 NSCLC", "result": 18.1, "unit": "µM"},
      {"measurement": "TGI", "setting": "HOP-62 NSCLC", "result": "> 100", "unit": "µM"},
      {"measurement": "GI50", "setting": "BT-549 breast", "result": 38.4, "unit": "µM"},
      {"measurement": "TGI", "setting": "BT-549 breast", "result": "> 100", "unit": "µM"},
      {"measurement": "GI50", "setting": "SK-MEL-28 melanoma", "result": "> 100", "unit": "µM"},
      {"measurement": "TGI", "setting": "SK-MEL-28 melanoma", "result": "> 100", "unit": "µM"},
      {"measurement": "GI50", "setting": "UO-31 renal", "result": 72, "unit": "µM"},
      {"measurement": "TGI", "setting": "UO-31 renal", "result": "> 100", "unit": "µM"},
      {"measurement": "GI50", "setting": "HT29 colon", "result": "> 100", "unit": "µM"},
      {"measurement": "TGI", "setting": "HT29 colon", "result": "> 100", "unit": "µM"},
      {"measurement": "GI50", "setting": "OVCAR-8 ovarian", "result": 26.7, "unit": "µM"},
      {"measurement": "TGI", "setting": "OVCAR-8 ovarian", "result": "> 100", "unit": "µM"}
    ]}
  ]
}
